# Data from patent publication US8044045B2, “Indazole-carboxamide compounds as 5-HT4 receptor agonists” (Theravance, Inc., priority 2004, dated 2011).
# Assay: Pharmacokinetic study in the rat
# Format: in vivo
# Procedure: Aqueous solution formulations of test compounds were prepared in 0.1% lactic acid at a pH of between about 5 and about 6. Male Sprague-Dawley rats (CD strain, Charles River Laboratories, Wilmington, Mass.) were dosed with test compounds via intravenous administration (IV) at a dose of 2.5 mg/kg or by oral gavage (PO) at a dose of 5 mg/kg. The dosing volume was 1 mL/kg for IV and 2 mL/kg for PO administration. Serial blood samples were collected from animals pre-dose, and at 2 (IV only), 5, 15, and 30 min, and at 1, 2, 4, 8, and 24 hours post-dose. Concentrations of test compounds in blood plasma were determined by liquid chromatography-mass spectrometry analysis (LC-MS/MS) (MDS SCIEX, API 4000, Applied Biosystems, Foster City, Calif.) with a lower limit of quantitation of 1 ng/mL.
# Standard pharmacokinetic parameters were assessed by non-compartmental analysis (Model 201 for IV and Model 200 for PO) using WinNonlin (Version 4.0.1, Pharsight, Mountain View, Calif.). The maximum in the curve of test compound concentration in blood plasma vs. time is denoted Cmax. The area under the concentration vs. time curve from the time of dosing to the last measurable concentration (AUC(0-t)) was calculated by the linear trapezoidal rule. Oral bioavailability (F(%)), i.e. the dose-normalized ratio of AUC(0-t) for PO administration to AUC(0-t) for IV administration, was calculated as: F(%)=AUCPO/AUCIV×DoseIV/DosePO×100%
# [1] = male Sprague-Dawley rats, blood plasma, PO 5 mg/kg
smiles,measurement,setting,value
"CC(=O)N1CCN(CCN2[C@@H]3CC[C@H]2CC(NC(=O)c2nn(C(C)C)c4ccccc24)C3)CC1 (stereo partly drawn) [Example 1, 1-isopropyl-1H-indazole-3-carboxylic acid {(1S,3R,5R)-8-[2-(4-acetylpiperazin-1-yl)ethyl]-8-azabicyclo[3.2.1]oct-3-yl}amide]",AUC(0-t),[1],730 ng·h/mL
same,Cmax,[1],250 ng/mL
same,oral bioavailability (F(%)),"rat, PO 5 mg/kg versus IV 2.5 mg/kg, dose-normalized AUC(0-t) ratio",about 100%
